Source: BindingDB's records for doi:10.1016/j.bmcl.2005.05.101 (Glaxosmithkline, 2005)

Tests used:
[1] = biological target: T1, Dimer of Gag-Pol polyprotein [501-599,Q508K,L534I,L564I,C568A,C596A] (Human immunodeficiency virus 1, UniProt P03367, C568A/C596A/L534I/L564I/Q508K); test: Protease Inhibition Assay
T1 construct: 501-599
Experimental: The Ki values were determined using fluorogenic substrate, 2-(aminobenzoyl)-Thr-Ile-Nle-Phe(p-NO2)-Gln-ArgNH2. A standard curve relating changes in fluorescent intensity to changes in concentration of product was used to convert fluorescent changes into molar velocities. The amount of cleavage was determined by HPLC.

[2] = biological target: T1, Dimer of Gag-Pol polyprotein [501-599,Q508K,L534I,L564I,C568A,C596A]; test: Protease Inhibition Assay; conditions: pH 6.8; 25 °C

SMILES	Ki [1] [pM]	Ki ([1]; pH 6.8, 25 °C) [pM]	IC50 [2] [pM]
O=C(N[C@@H](Cc1ccccc1)[C@H](O)CN(OC1CCCCC1)S(=O)(=O)c1ccc2c(c1)OCO2)O[C@H]1CO[C@H]2OCC[C@H]21 [(3R,3aS,6aR)-hexahydrofuro[2,3-b]furan-3-yl N-[(2S,3R)-4-[2H-1,3-benzodioxole-5-(cyclohexyloxy)sulfonamido]-3-hydroxy-1-phenylbutan-2-yl]carbamate]	< 5	–	–
O=C(N[C@@H](Cc1ccccc1)[C@H](O)CN(OC1CCCC1)S(=O)(=O)c1ccc2c(c1)OCO2)O[C@H]1CO[C@H]2OCC[C@H]21 [(3R,3aS,6aR)-hexahydrofuro[2,3-b]furan-3-yl N-[(2S,3R)-4-[2H-1,3-benzodioxole-5-(cyclopentyloxy)sulfonamido]-3-hydroxy-1-phenylbutan-2-yl]carbamate]	< 5	–	–
Nc1cccc(S(=O)(=O)N(C[C@@H](O)[C@H](Cc2ccccc2)NC(=O)O[C@H]2CO[C@H]3OCC[C@H]32)OC2CCCC2)c1 [(3R,3aS,6aR)-hexahydrofuro[2,3-b]furan-3-yl N-[(2S,3R)-4-[(3-aminobenzene)(cyclopentyloxy)sulfonamido]-3-hydroxy-1-phenylbutan-2-yl]carbamate]	< 5	–	–
Nc1ccc(S(=O)(=O)N(C[C@@H](O)[C@H](Cc2ccccc2)NC(=O)O[C@H]2CO[C@H]3OCC[C@H]32)OC2CCCC2)cc1 [(3R,3aS,6aR)-hexahydrofuro[2,3-b]furan-3-yl N-[(2S,3R)-4-[(4-aminobenzene)(cyclopentyloxy)sulfonamido]-3-hydroxy-1-phenylbutan-2-yl]carbamate]	< 5	–	–
O=C(N[C@@H](Cc1ccccc1)[C@H](O)CN(OC1CCCCC1)S(=O)(=O)c1ccc2c(c1)OCCO2)O[C@H]1CO[C@H]2OCC[C@H]21 [(3R,3aS,6aR)-hexahydrofuro[2,3-b]furan-3-yl N-[(2S,3R)-4-[(cyclohexyloxy)(2,3-dihydro-1,4-benzodioxine-6-)sulfonamido]-3-hydroxy-1-phenylbutan-2-yl]carbamate]	< 5	–	–
O=C(N[C@@H](Cc1ccccc1)[C@H](O)CN(OC1CCCCC1)S(=O)(=O)c1ccc(O)cc1)O[C@H]1CO[C@H]2OCC[C@H]21 [(3R,3aS,6aR)-hexahydrofuro[2,3-b]furan-3-yl N-[(2S,3R)-4-[(cyclohexyloxy)(4-hydroxybenzene)sulfonamido]-3-hydroxy-1-phenylbutan-2-yl]carbamate]	< 5	–	–
COc1ccc(S(=O)(=O)N(C[C@@H](O)[C@H](Cc2ccccc2)NC(=O)O[C@H]2CCOC2)OC2CCCC2)cc1 [(3S)-oxolan-3-yl N-[(2S,3R)-4-[(cyclopentyloxy)(4-methoxybenzene)sulfonamido]-3-hydroxy-1-phenylbutan-2-yl]carbamate]	–	190	738000
COc1ccc(S(=O)(=O)N(C[C@@H](O)[C@H](Cc2ccccc2)NC(=O)[C@@H](NC(=O)c2ccc3ccccc3n2)C(N)=O)OC2CCCC2)cc1 [N-alkoxysulfonamide analog entry j]	–	< 5	24000
COc1ccc(S(=O)(=O)N(C[C@@H](O)[C@H](Cc2ccccc2)NC(=O)O[C@H]2CO[C@H]3OCC[C@H]32)OC2CCCC2)cc1 [N-alkoxysulfonamide analog entry k]	–	< 5	6000
O=C(N[C@@H](Cc1ccccc1)[C@H](O)CN(OC1CCCC1)S(=O)(=O)c1ccc(O)cc1)O[C@H]1CO[C@H]2OCC[C@H]21 [N-alkoxysulfonamide analog entry n]	< 5	–	–
O=C(N[C@@H](Cc1ccccc1)[C@H](O)CN(OC1CCCC1)S(=O)(=O)c1ccc2c(c1)OCCO2)O[C@H]1CO[C@H]2OCC[C@H]21 [N-alkoxysulfonamide analog entry p]	< 5	–	–
COc1ccc(S(=O)(=O)N(C[C@@H](O)[C@H](Cc2ccccc2)NC(=O)O[C@H]2CO[C@H]3OCC[C@H]32)OC2CCCCC2)cc1 [N-alkoxysulfonamide analog entry q]	< 5	–	–
COC(=O)N[C@H](C(=O)N[C@@H](Cc1ccccc1)[C@H](O)CN(OC1CCCC1)S(=O)(=O)c1ccc(OC)cc1)C(C)(C)C [methyl N-[(1S)-1-{[(2S,3R)-4-[(cyclopentyloxy)(4-methoxybenzene)sulfonamido]-3-hydroxy-1-phenylbutan-2-yl]carbamoyl}-2,2-dimethylpropyl]carbamate]	–	–	203000
